Assays:
Format in all cases: physicochemical
[1] = Fluorescence excitation/emission
Text: ^1H and ^13C NMR spectra were obtained on a Varian 300 MHz spectrometer (^1H: […], ^13C: […]), Inova 500 MHz spectrometer (^1H: 500.10 MHz, ^13C: 125.75 MHz) or Varian 600 MHz spectrometer (^1H: 599.98 MHz, ^13C: 150.87 MHz). Chemical shifts (6) are expressed in ppm using non-deuterated solvent present in the bulk deuterated solvent (CDCl3: ^1H 7.26 ppm, ^13C 77.16 ppm; (CD3)2SO: ^1H 2.5 ppm, ^13C 39.52 ppm). Solvents and reagents were used as purchased from suppliers, unless anhydrous conditions were employed, in which solvents were freshly distilled from sodium/benzophenone under N2 atmosphere (THF) or as purchased in sealed, DriSolv containers (pyridine). Triphenylphosphite was freshly distilled under vacuum before use. Mass spectra were acquired with a Waters LCT Premier ESI-MS in positive mode using acetone as a solvent. UV-Vis spectra were acquired with a Hewlett-Packard 8453 UV-Visible spectrophotometer equipped with a 250 nm cutoff filter. Fluorescence data was acquired with a Horiba Jobin-Yvon FluoroMax-4 fluorescence spectrophotometer. HPLC performed using a JAI Recycling Preparative HPLC (Model LC-9101) with a JAIGEL-1H preparative column.
The compounds gave fluorescence emissions similar to those of carbostyril. (3-Ph-carbostyril ex: 345 nm, em: 410 nm; II-3 ex: 354 nm, em: 427 nm).
The only scaffold which responded to the addition of acid was one containing a 2-pyridyl substituent, which directly corresponded to protonation of the pyridine. The N—H proton of the NH—P(OPh)=O functionality is fairly acidic, and easily removed via treatment with organic bases such as DBU. […] The fluorophore II-7 gave substitution patterns that were followed for both red-shift and quantum yield optimization of carbostyril fluorophores. Following the guidelines within the scaffold, with placement of electron donating groups in the 6- and 7-positions, and an electron-withdrawing group in the 3-position, yielded a fluorophore with an emission of 505 nm and a quantum yield of 45% in CHCl3.

[2] = Stability of phosphonimidate form toward hydrolysis/heat; settings: 100° C. reaction conditions
Text: Disclosed herein is a synthetic approach to assemble the 2-λ^5-phosphaquinoline in one step from easily attainable starting materials. By treatment of a 2-ethynyl aniline (for example, accessible from Sonogashira cross-coupling with commercially available 2-iodoanilines) with triphenylphosphite, the disclosed compounds were synthesized in good to modest yields (Table 1). Typically, upon isolation and purification via hot recrystallization in ambient atmosphere, the phosphaquinoline partially hydrolyzed, yielding the phosphaquinolinone form and releasing phenol. However, the phosphonimidate form (A) appeared to be stable at room temperature. This reaction was tolerant to a variety of electron-rich and electron-poor arenes, as well as alkyl functionality attached at the ethynyl.
Except for compounds with a 2-pyridyl substituent, the phosphonimidate compounds tended to hydrolyze when heated in ambient atmosphere to give the phosphonamidate. If the reaction was performed rigorously water-free, and worked up with minimal exposure to ambient atmosphere, the phosphonimidate forms (I) can be isolated for all of the derivatives. […] This and stability of the phosphonimidate toward hydrolysis at room temperature lent credence to increased stability from delocalization within the heterocycle.

Dimerization in solution = assay: Dimerization in solution
Text: This corresponded to an energy of 1.5 kcal/mol for each H-bond, which was quite high compared to cis-amides such as pyrrolidone or caprolactam, who experience dimerization constants from 1-5 M^−1 in CHCl3. […] As a result, this dimer deviated from the trends previously reported, where each attractive interaction gave −1.88 kcal/mol of energy to ΔG, and each repulsive secondary interaction gave +0.74 kcal/mol. Following the same schema, the two repulsive secondary interactions in the present dimer yielded only +0.76 kcal/mol of destabilization, about half of what was expected.

[3] = TEA added, in CHCl3 (deprotonated N-H)

Structure (SMILES) | fluorescence emission (em) ([1]; CHCl3, neutral form) [nm] | fluorescence emission (em) ([1]; MeCN) [nm] | fluorescence emission (em) ([1]; solvent not stated) [nm] | fluorescence excitation (ex) ([1]; solvent not stated) [nm] | other results
COc1ccc(C2=Cc3ccccc3NP2(=O)Oc2ccccc2)cc1 (centres unmarked) [II-4, 3-(4-methoxyphenyl)-2-phenoxy-1H-benzo[e][1,2]azaphosphinine 2-oxide] | 411 | 411 | – | – | –
CCOC(=O)c1ccc(C2=Cc3ccccc3N=P2(Oc2ccccc2)Oc2ccccc2)cc1 [I-2, ethyl 4-(2,2-diphenoxy-2-λ^5-benzo[e][1,2]azaphosphinin-3-yl)benzoate] | – | – | – | – | stability under reaction conditions [2]: quite stable
N#Cc1ccc(C2=Cc3ccccc3NP2(=O)Oc2ccccc2)cc1 (centres unmarked) [II-1, 4-(2-oxido-2-phenoxy-1H-benzo[e][1,2]azaphosphinin-3-yl)benzonitrile] | 430 | 450 | – | – | energy for each H-bond (Dimerization in solution; from dimerization constant in CDCl3): 1.5 kcal/mol; dimerization constant (Dimerization in solution; in CDCl3): 133 ± 15 M⁻¹; fluorescence excitation (ex) ([1]; CHCl3, neutral form): 345 nm; fluorescence emission (em) [1, 3]: 542 nm; fluorescence excitation (ex) [1, 3]: 360 nm; Stokes shift ([1]; upon treatment with base (TEA) in CHCl3): 180 nm
N#Cc1ccc(C2=Cc3cc4c(cc3NP2(=O)Oc2ccccc2)OCO4)cc1 (centres unmarked) [II-7, 4-(2-oxido-2-phenoxy-1H-[1,3]dioxolo[4′,5′:4,5]benzo[1,2-e][1,2]azaphosphinin-3-yl)benzonitrile] | 505 | – | – | – | quantum yield ([1]; in CHCl3): 45%
O=c1[nH]c2ccccc2cc1-c1ccccc1 [3-Ph-carbostyril, reference compound] | – | – | 410 | 345 | –
O=P1(Oc2ccccc2)Nc2ccccc2C=C1c1ccccc1 (centres unmarked) [II-3, 2-phenoxy-3-phenyl-1H-benzo[e][1,2]azaphosphinine 2-oxide] | – | – | 427 | 354 | –
